Measurements: US9879034B2, “Near-infrared absorption composition, cured film, near-infrared cut filter, solid-state imaging device, infrared sensor, and compound” (FUJIFILM Corporation, priority 2015, dated 2018)

Tests used:
[1] = Maximum absorption wavelength of compound solution (UV-1800); format: physicochemical; design: unit: nm; settings: dissolved in tetrahydrofuran, 1 g/L
Experimental: According to the invention, the value of the maximum absorption wavelength is obtained as follows: a compound represented by Formula (1) is dissolved in tetrahydrofuran to prepare a solution with a concentration of 1 g/L, and an absorption spectrum of the solution obtained by dissolving the compound is measured in a wavelength range of 350 nm to 1,200 nm using UV-1800 manufactured by Shimadzu Corporation.
Each compound was dissolved in tetrahydrofuran to prepare a solution with a concentration of 1 g/L. Next, the absorption spectrum of the solution obtained by dissolving each compound was measured using UV-1800 manufactured by Shimadzu Corporation, and a maximum absorption wavelength (λmax) was measured.

[2] = Solubility of compound to solvent at 25° C.; format: physicochemical; settings: for Solubility Cyclohexanone / Solubility PGMEA / Solubility Toluene: 25° C.; for Solubility Cyclohexanone / solubility of the compound to each solvent (in words): cyclohexanone; for solubility of the compound to each solvent (in words): PGMEA; for solubility of the compound to each solvent (in words) / Solubility Toluene: toluene; for Solubility PGMEA: propylene glycol monomethyl ether acetate
Experimental: The solubility of each compound to each solvent (cyclohexanone, propylene glycol monomethyl ether acetate (PGMEA), and toluene) at 25° C. was evaluated based on the following standards.
A: The solubility of the compound to the solvent at 25° C. is 2 mass % or greater.

With CCC1(CC)N=c2/c(=C3\C(=O)C(c4ccc5cccc6c5c4NC(CC)(CC)N6)=C3O)ccc3cccc(c23)N1 [Compound R-2, reference compound] the “Maximum Absorption Wavelength” value [1] was 807, the “Solubility Cyclohexanone” value [2] was “C (The solubility of the compound to the solvent at 25 °C is 0.5 mass % to less than 1 mass %.)” and the “solubility of the compound to each solvent (in words)” value [2] was “did not have sufficient solubility”. For the same molecule, the “Solubility PGMEA” value [2] was “C (The solubility of the compound to the solvent at 25 °C is 0.5 mass % to less than 1 mass %.)” and the “Solubility Toluene” value [2] was “B (The solubility of the compound to the solvent at 25 °C is 1 mass % to less than 2 mass %.)”.
In the case of CC(C)CCCC(C)CCc1ccc(B2N=c3/c(=C4\C(=O)C(c5ccc6cccc7c6c5NB(c5ccc(CCC(C)CCCC(C)C)cc5)N7)=C4O)ccc4cccc(c34)N2)cc1 (racemic) [SQ-2], the “Maximum Absorption Wavelength” value [1] is reported as 823, the “Solubility Cyclohexanone” value [2] is reported as “A (The solubility of the compound to the solvent at 25 °C is 2 mass % or greater.)” and the “Solubility PGMEA” value [2] is reported as “A (The solubility of the compound to the solvent at 25 °C is 2 mass % or greater.)”. For the same molecule, the “Solubility Toluene” value [2] was “A (The solubility of the compound to the solvent at 25 °C is 2 mass % or greater.)”.
In the case of CC(C)(C)c1ccc(B2N=c3/c(=C4\C(=O)C(c5ccc6cccc7c6c5NB(c5ccc(C(C)(C)C)cc5)N7)=C4O)ccc4cccc(c34)N2)cc1 [Compound R-1, reference compound], the “Maximum Absorption Wavelength” value [1] is reported as 827, the “Solubility Cyclohexanone” value [2] is reported as “D (The solubility of the compound to the solvent at 25 °C is less than 0.5 mass %.)” and the “solubility of the compound to each solvent (in words)” value [2] is reported as “did not have sufficient solubility”. The “Solubility PGMEA” value [2] was “D (The solubility of the compound to the solvent at 25 °C is less than 0.5 mass %.)” and the “Solubility Toluene” value [2] was “D (The solubility of the compound to the solvent at 25 °C is less than 0.5 mass %.)”.
With CCCCCCCCCCOc1ccccc1B1N=c2/c(=C3\C(=O)C(c4ccc5cccc6c5c4NB(c4ccccc4OCCCCCCCCCC)N6)=C3O)ccc3cccc(c23)N1 [SQ-6] the “Maximum Absorption Wavelength” value [1] was 828, the “Solubility Cyclohexanone” value [2] was “B (The solubility of the compound to the solvent at 25 °C is 1 mass % to less than 2 mass %.)” and the “Solubility PGMEA” value [2] was “B (The solubility of the compound to the solvent at 25 °C is 1 mass % to less than 2 mass %.)”. For the same molecule, the “Solubility Toluene” value [2] was “A (The solubility of the compound to the solvent at 25 °C is 2 mass % or greater.)”.
With COCCOCCOCCOc1ccc(B2N=c3/c(=C4\C(=O)C(c5ccc6cccc7c6c5NB(c5ccc(OCCOCCOCCOC)cc5)N7)=C4O)ccc4cccc(c34)N2)cc1 [SQ-5] the “Maximum Absorption Wavelength” value [1] was 823, the “Solubility Cyclohexanone” value [2] was “B (The solubility of the compound to the solvent at 25 °C is 1 mass % to less than 2 mass %.)” and the “Solubility PGMEA” value [2] was “A (The solubility of the compound to the solvent at 25 °C is 2 mass % or greater.)”. The “Solubility Toluene” value [2] was “B (The solubility of the compound to the solvent at 25 °C is 1 mass % to less than 2 mass %.)”.
In the case of C=CCCCCCCCCOc1ccccc1B1N=c2/c(=C3\C(=O)C(c4ccc5cccc6c5c4NB(c4ccccc4OCCCCCCCCC=C)N6)=C3O)ccc3cccc(c23)N1 [SQ-11], the “Maximum Absorption Wavelength” value [1] is reported as 828, the “Solubility Cyclohexanone” value [2] is reported as “A (The solubility of the compound to the solvent at 25 °C is 2 mass % or greater.)” and the “Solubility PGMEA” value [2] is reported as “B (The solubility of the compound to the solvent at 25 °C is 1 mass % to less than 2 mass %.)”. The “Solubility Toluene” value [2] was “A (The solubility of the compound to the solvent at 25 °C is 2 mass % or greater.)”.
In the case of CCCCCCCCCC(CCCCCCCCC)Oc1ccc(B2N=c3/c(=C4\C(=O)C(c5ccc6cccc7c6c5NB(c5ccc(OC(CCCCCCCCC)CCCCCCCCC)cc5)N7)=C4O)ccc4cccc(c34)N2)cc1 [SQ-4], the “Maximum Absorption Wavelength” value [1] is reported as 823, the “Solubility Cyclohexanone” value [2] is reported as “B (The solubility of the compound to the solvent at 25 °C is 1 mass % to less than 2 mass %.)” and the “Solubility PGMEA” value [2] is reported as “B (The solubility of the compound to the solvent at 25 °C is 1 mass % to less than 2 mass %.)”. For the same molecule, the “Solubility Toluene” value [2] was “A (The solubility of the compound to the solvent at 25 °C is 2 mass % or greater.)”.
For CCCCCCCCCC(CCCCCCCCC)B1N=c2/c(=C3\C(=O)C(c4ccc5cccc6c5c4NB(C(CCCCCCCCC)CCCCCCCCC)N6)=C3O)ccc3cccc(c23)N1 [SQ-7], the “Maximum Absorption Wavelength” value [1] was 815, the “Solubility Cyclohexanone” value [2] was “B (The solubility of the compound to the solvent at 25 °C is 1 mass % to less than 2 mass %.)” and the “Solubility PGMEA” value [2] was “B (The solubility of the compound to the solvent at 25 °C is 1 mass % to less than 2 mass %.)”. The “Solubility Toluene” value [2] was “B (The solubility of the compound to the solvent at 25 °C is 1 mass % to less than 2 mass %.)”.
